Reference: patent publication US20200377459A1, “CHARGED ION CHANNEL BLOCKERS AND METHODS FOR USE” (President and Fellows of Harvard College, priority 2015, published 2020)

System: ATF3 expression in dorsal root ganglion
Experiment: ATF3 immunofluorescence in dorsal root ganglion (neurotoxicity)
Assay type: in vivo
Details: mice, hindpaw injection CFA+NEE 1%, 20 μl, 8 weeks earlier
Method: Representative picture of ATF3 (dark shading, FIGS. 4A-4C) expression in mice dorsal root ganglion slice exposed 8 weeks earlier to an acute hindpaw injection of CFA+N-ethyl-etidocaine (Compound 21) (1%, 20 μl).
Upon harvesting, the dorsal root ganglia were fixed overnight in 4% para-formaldehyde, washed in PBS and cryoprotected by sequential sucrose immersion (PBS 10-30% sucrose, Overnight). Ganglia were mounted in O.C.T. (Tissue-tek), and serially cut in 20 μm coronal sections with a cryostat. The sections were thaw-mounted on Fisherbrand superfrost microscopy slides and kept at −80° C. On the day of the experiment, sections were thawed at room temperature for 10 min. Sections were washed in PBS for 5 min, blocked for 1 h at room temperature (PBS, 0.1% Triton X-100, 5% BSA) and exposed to the primary antibodies (Overnight, 4° C.), namely rabbit anti-mouse ATF3 (Sigma, # HPA001562). Sections were then washed three times in PBS (5 min), exposed to the secondary antibodies and DAPI (1:2000. Sigma, # D9542) (2 h, dark), washed, coverslipped with Vectashield (Vector Labs) and observed under confocal microscope ([…], LSM-710).
To evaluate if such toxicity occurred with NEE (Compound 21), mice were injected with a combination of CFA+NEE (1%) 8 weeks prior to DRG extraction.

Compound: CCC[N+](CC)(CC)C(CC)C(=O)Nc1c(C)cccc1C (centres unmarked) [Compound 21, N-ethyl etidocaine]
- neurotoxicity: ATF3 expression in DRG: does not induce neurotoxicity
- neurotoxicity: ATF3 expression in DRG (listed as NEE): No ATF3 expression was observed
